Laboratory results from US10940188B2, “Compounds and methods for treatment and prevention of Flavivirus infection” (priority 2016, dated 2021).
Where a name gives a salt, the structure may show the parent alone. Read-outs that look alike come from different tables or passages of the source.

How the values were obtained:
[1] = tested on: ZIKV-induced caspase 3/7 activity in human astrocytes; assay: Caspase 3/7 activity assay, ZIKV-infected human astrocytes; format: cell-based; conditions: for IC50: read-out: Caspase 3 (IC50, uM) Astrocyte; for Emax: read-out: Caspase 3 (efficacy, %) Astrocyte
Description: (§1) Caspase-Glo 3/7 assay kit (catalog number G8092; Promega, Madison, Wis.) was used to detect caspase 3/7 activity. Reagents were reconstituted as described in the protocol from the manufacturer. Polystyrene plates (384-well and 1536-well; regular tissue culture treated and PDL coated) were purchased from Greiner Bio-One (Monroe, N.C.). Cells were seeded in 384- and 1536-well assay plates and cultured at 37° C. with 5% CO2 for 16 hours. ZIKV solution was added to cells, followed by incubation at 37° C. with 5% CO2 for 6 hours. Caspase-Glo 3/7 was added to each well, unless otherwise specified, and incubated at room temperature for 30 minutes. The luminescence intensity of the assay plates was measured using a ViewLux plate reader (PerkinElmer). Data were normalized by using the cell-containing wells without ZIKV as a negative control (0% induction of caspase 3/7 activity) and wells containing ZIKV infected cells that induced caspase 3/7 activity were used as a positive control (100% induction of caspase 3/7 activity). […]
(§2) Caspase-Glo 3/7 assay kit (Promega) was used to detect caspase 3/7 activity. Reagents were reconstituted as described in the protocol from the manufacturer. Cells were seeded in 384- and 1536-well assay plates and cultured at 37° C. with 5% CO2 for 16 hours. ZIKV solution was added to cells, followed by incubation at 37° C. with 5% CO2 for 6 hours. Caspase-Glo 3/7 was added to each well at a 1:1 ratio, unless otherwise specified, and incubated at room temperature for 30 minutes. The luminescence intensity of the assay plates was measured using a ViewLux plate reader (PerkinElmer). Data was normalized by using the cell-containing wells without ZIKV as a negative (0% induction of caspase 3/7 activity) control and wells containing ZIKV infected cells that induced caspase 3/7 activity were used as a positive control (100% induction of caspase 3/7 activity). […]

[2] = tested on: ZIKV-induced caspase 3/7 activity in SNB-19 cells; assay: Caspase 3/7 activity assay, ZIKV-infected SNB-19 cells; format: cell-based
Description: as §1, §2

[3] = tested on: ZIKV-induced caspase 3/7 activity in hNPCs; assay: Caspase 3/7 activity assay, ZIKV-infected hNPCs; format: cell-based; conditions: for IC50: read-out: Caspase 3 (IC50, uM) NPCs; for Emax: read-out: Caspase 3 (efficacy, %) NPCs
Description: Caspase-Glo 3/7 assay kit (catalog number G8092; Promega, Madison, Wis.) was used to detect caspase 3/7 activity. Reagents were reconstituted as described in the protocol from the manufacturer. Polystyrene plates (384-well and 1536-well; regular tissue culture treated and PDL coated) were purchased from Greiner Bio-One (Monroe, N.C.). Cells were seeded in 384- and 1536-well assay plates and cultured at 37° C. with 5% CO2 for 16 hours. ZIKV solution was added to cells, followed by incubation at 37° C. with 5% CO2 for 6 hours. Caspase-Glo 3/7 was added to each well, unless otherwise specified, and incubated at room temperature for 30 minutes. The luminescence intensity of the assay plates was measured using a ViewLux plate reader (PerkinElmer). Data were normalized by using the cell-containing wells without ZIKV as a negative control (0% induction of caspase 3/7 activity) and wells containing ZIKV infected cells that induced caspase 3/7 activity were used as a positive control (100% induction of caspase 3/7 activity).
Human NPCs were seeded onto PDL coated 1536-well assay plates at 250 cells per 3 μl/well and incubated at 37° C. in 5% CO2 for 16 hours. Test compounds dissolved in DMSO were transferred to assay plates at a volume of 23 nl/well by an automated pintool workstation (Wako Automation, San Diego, Calif.). Compounds were incubated with cells for 30 minutes at 37° C. in 5% CO2, immediately followed by the addition of 2 μl/well of ZIKV. Incubation time of compound-treated cells with ZIKV varied based on assay format. Experiments measuring virus-induced caspase 3/7 activity required a 6 hour incubation of ZIKV in the presence compounds at 37° C. in 5% CO2. Following this incubation, 3.5 μl/well of caspase 3/7 reagent mixture was added to assay plates. The plates were incubated for 30 minutes at room temperature, and the resultant luminescence signal was measured using a ViewLux plate reader (Perkin Elmer). Experiments measuring virus-induced cell death required a 72-hour incubation of ZIKV in the presence of compounds at 37° C. in 5% CO2. Following this incubation, 3.5 μl/well of ATP content detection reagent was added to assay plates, incubated for 30 minutes at the room temperature, and the resultant luminescence signal was measured in a ViewLux plate reader.
Caspase-Glo 3/7 assay kit (Promega) was used to detect caspase 3/7 activity. Reagents were reconstituted as described in the protocol from the manufacturer. Cells were seeded in 384- and 1536-well assay plates and cultured at 37° C. with 5% CO2 for 16 hours. ZIKV solution was added to cells, followed by incubation at 37° C. with 5% CO2 for 6 hours. Caspase-Glo 3/7 was added to each well at a 1:1 ratio, unless otherwise specified, and incubated at room temperature for 30 minutes. The luminescence intensity of the assay plates was measured using a ViewLux plate reader (PerkinElmer). Data was normalized by using the cell-containing wells without ZIKV as a negative (0% induction of caspase 3/7 activity) control and wells containing ZIKV infected cells that induced caspase 3/7 activity were used as a positive control (100% induction of caspase 3/7 activity).
Human NPCs were seeded onto PDL coated 1536-well assay plates at 250 cells per 3 μl/well and incubated at 37° C. in 5% CO2 for 16 hours. Test compounds dissolved in DMSO were transferred to assay plates at a volume of 23 nl/well by an automated pintool workstation (Wako Automation, San Diego, Calif.). Compounds were incubated with cells for 30 minutes at 37° C. in 5% CO2, immediately followed by the addition of 2 μl/well of ZIKV. Incubation time of compound-treated cells with ZIKV varied based on assay format. Experiments measuring virus induced caspase 3/7 activity required a 6 hour incubation of ZIKV in the presence compounds at 37° C. in 5% CO2. […]

[4] = tested on: ZIKV-induced cell death in human astrocytes; assay: ATP cell viability assay for ZIKV-induced cell death, human astrocytes; format: cell-based; conditions: for IC50: read-out: Cell viability (IC50, uM) Astrocyte
[5] = tested on: ZIKV-induced cell death in SNB-19 cells; assay: ATP cell viability assay for ZIKV-induced cell death, SNB-19 cells; format: cell-based, human
Description: (§3) The reagent was reconstituted and prepared as described by the manufacturer. In order to measure the cell death caused by ZIKV infection, cells were cultured for 16 hours at 37° C. with 5% CO2 in assay plates, followed by the addition of ZIKV solution and incubation at 37° C. with 5% CO2 for 72 hours. ATPlite, the ATP monitoring reagent, was then added to the assay plates and they were incubated for 15 minutes. The resulting luminescence was measured using the ViewLux plate reader (Perkin Elmer). Data were normalized using the wells without cells as a control for 100% cell killing, and cell-containing wells without ZIKV infection were used as full cell viability (0% cell killing). […]
as §3, with “The ATPlite luminescence assay system assay kit (PerkinElmer) was used to determine cell viability. The reagent” for “The reagent”, “by the manufacture. In order” for “by the manufacturer. In order”, “followed by addition of” for “followed by the addition of”, “plates and incubated for” for “plates and they were incubated for”, “Elmer). Data was normalized using” for “Elmer). Data were normalized using”

[6] = Astrocyte, ZIKV-infected human astrocytes
[7] = Homo sapiens, ZIKV-infected SNB-19 cells, read-out: Caspase 3 (IC50, uM) SNB-19
[8] = Homo sapiens, ZIKV-infected SNB-19 cells, read-out: Caspase 3 (efficacy, %) SNB-19
[9] = Homo sapiens, ZIKV-infected hNPCs
[10] = ZIKV-infected SNB-19 cells, read-out: Caspase 3 (IC50, uM) SNB-19
[11] = ZIKV-infected SNB-19 cells, read-out: Cell viability (IC50, uM) SNB-19
[12] = Homo sapiens, ZIKV-infected SNB-19 cells, read-out: Cell viability (IC50, uM) SNB-19

| Structure (SMILES) | IC50 [1, 6] | Emax [1, 6] | IC50 [2, 7] | Emax [2, 8] | IC50 [3, 9] | Emax [3, 9] | Cell viability (efficacy, %) Astrocyte ([4]; ZIKV-infected human astrocytes) | Cell viability (efficacy, %) SNB-19 ([5]; ZIKV-infected SNB-19 cells) | other results |
| --- | --- | --- | --- | --- | --- | --- | --- | --- | --- |
| O=C(/C=C/C=C/c1ccc2c(c1)OCO2)N1CCCCC1 [Piperine] | 20.6 µM | 73.9% | 19.5 µM | 75.5% | 13.8 µM | 66% | 0.0% | 0.0% | – |
| CC(C)(C)COc1ccc(-n2cc(C(=O)O)cn2)cc1C#N [Piraxostat] | – | – | – | – | – | – | 34.7% | 60.3% | Caspase 3 (efficacy, %) Astrocyte ([1]; ZIKV-infected human astrocytes): 70.5%; IC50 ([1]; ZIKV-infected human astrocytes): 8.91 µM; Caspase 3 (efficacy, %) SNB-19 ([2]; ZIKV-infected SNB-19 cells): 63.5%; IC50 [2, 10]: 21.1 µM; Caspase 3 (efficacy, %) NPCs ([3]; ZIKV-infected hNPCs): 67.1%; IC50 ([3]; ZIKV-infected hNPCs): 15.8 µM; IC50 ([4]; ZIKV-infected human astrocytes): 63.1 µM; IC50 [5, 11]: 5.01 µM |
| O=c1cc(-c2ccccc2)oc2cc(O)c(O)c(O)c12 [Baicalein] | – | 0% | 29.1 µM | 50.6% | 18.4 µM | 57.5% | 0.0% | 0.0% | – |
| O=C(Nc1ncc([N+](=O)[O-])s1)c1cccs1 [Tenonitrozole] | 2.06 µM | 88.8% | 1.95 µM | 81.7% | 1.3 µM | 81.5% | 0.0% | 0.0% | – |
| Nc1ccc(/N=N/c2ccccc2)c(N)n1 [Phenazopyridine hydrochloride] | 15.5 µM | 69.9% | 16.4 µM | 73.7% | 11.6 µM | 72.5% | 0.0% | 35.3% | IC50 [5, 12]: 27.5 µM |
| COc1cccc2c1C(=O)c1c(O)c3c(c(O)c1C2=O)C[C@@](O)(C(=O)CO)C[C@@H]3O[C@H]1C[C@H](N2CCO[C@H](OC)C2)[C@H](O)[C@H](C)O1 [Nemorubicin] | – | – | – | – | – | – | 146% | 117% | IC50 ([1]; Homo sapiens, Astrocyte): 15.5 µM; Emax ([1]; Homo sapiens, Astrocyte): 42.6%; IC50 ([2]; Homo sapiens, SNB-19, read-out: Caspase 3 (IC50, uM) SNB-19): 30.8 µM; Emax ([2]; Homo sapiens, SNB-19, read-out: Caspase 3 (efficacy, %) SNB-19): 53.1%; Emax ([3]; Homo sapiens): 82.9%; IC50 ([4]; Homo sapiens, Astrocyte): 0.87 µM; IC50 ([5]; Homo sapiens, SNB-19, read-out: Cell viability (IC50, uM) SNB-19): 0.41 µM |
| CCC[S+]([O-])c1ccc2[nH]c(NC(=O)OC)nc2c1 (centres unmarked) [Albendazole oxide] | 15.5 µM | 78.8% | 21.8 µM | 86% | 12.3 µM | 88.1% | 0.0% | 0.0% | – |
| O=c1cc(-c2ccccc2)oc2cc(O)cc(O)c12 [5,7-Dihydroxyflavone] | 15.5 µM | 55.1% | 8.69 µM | 42.7% | 5.48 µM | 51% | 0.0% | 0.0% | – |
| O=C(Nc1ccc(OC(F)(F)F)cc1)c1sccc1NCc1ccnc2ccccc12 [OSI-930] | 8.2 µM | 91.5% | 6.9 µM | 114% | 6.9 µM | 96.9% | 0.0% | 71.2% | IC50 [5, 12]: 3.08 µM |
| O=C(/C=C/c1ccc(O)cc1)c1ccc(O)cc1O [Isoliquiritigenin] | 3.08 µM | 95.1% | 2.18 µM | 96.9% | 1.84 µM | 89% | 0.0% | 36.3% | IC50 [5, 12]: 3.08 µM |
| Nc1ccc(-c2ccc3ccccc3n2)cc1 [BF-170 hydrochloride] | – | – | – | – | – | – | 65.8% | 0.0% | Caspase 3 (efficacy, %) Astrocyte ([1]; ZIKV-infected human astrocytes): 118%; IC50 ([1]; ZIKV-infected human astrocytes): 4.61 µM; Caspase 3 (efficacy, %) SNB-19 ([2]; ZIKV-infected SNB-19 cells): 104%; IC50 [2, 10]: 6.15 µM; Caspase 3 (efficacy, %) NPCs ([3]; ZIKV-infected hNPCs): 92.7%; IC50 ([3]; ZIKV-infected hNPCs): 4.11 µM; IC50 ([4]; ZIKV-infected human astrocytes): 6.15 µM |
| CN(C)c1ccc(N=NS(=O)(=O)[O-])cc1.[Na+] [Fenaminosulf] | – | – | – | – | – | – | 0.0% | 36.7% | Caspase 3 (efficacy, %) Astrocyte ([1]; ZIKV-infected human astrocytes): 58.5%; IC50 ([1]; ZIKV-infected human astrocytes): 35.5 µM; Caspase 3 (efficacy, %) SNB-19 ([2]; ZIKV-infected SNB-19 cells): 0.0%; Caspase 3 (efficacy, %) NPCs ([3]; ZIKV-infected hNPCs): 0.0%; IC50 [5, 11]: 15.8 µM |
